For 19 molecules, viability and activity results are on record in PMC12040169 (PLOS Biology, 2025).

One data set is described as follows: in vitro. On the set-up: Viability of infected HeLa host cells, resazurin conversion, bulk resorufin fluorescence relative to DMSO. As to conditions: human, hela cells; bulk resorufin, mean of 2.
Data set [1] concerns T1, C. trachomatis L2/434/Bu expressing GFP (CTL2-GFP).
T1 construct: L2/434/Bu GFP intracellular growth in HeLa cells
As to the kind of experiment: microbe, parasite or virus in culture. As to conditions: Chlamydia trachomatis, HeLa, 28.5 h; total inclusion area; read-out: % of control remaining. Also noted: C. trachomatis total inclusion area by high-content imaging, normalised to DMSO. From the text: We screened a library of 36,785 small molecules displaying drug-like properties and covering a wide chemical space (Fig 1A and S2A Data). In this process, we also complemented the assay described above with an imaging-based readout (Fig 1B). After measurements of bulk GFP and resorufin fluorescence, cells were fixed, stained with the DNA dye Hoechst, and imaged at a high-content imaging platform to detect chlamydial inclusions (GFP) and host cell nuclei (Hoechst). The total area and number of inclusions in individual wells and the number of nuclei then served as additional proxies for chlamydial growth and host cell viability. […] MICs were calculated as described above.

For data set [2], the system named is T2, CTL2-GFP (C. trachomatis L2/434/Bu, GFP-expressing).
T2 construct: L2/434/Bu, GFP-expressing
In words: microbe, parasite or virus in culture. On the set-up: Intracellular C. trachomatis growth in HeLa cells, bulk GFP fluorescence relative to DMSO. To be noted: Chlamydia trachomatis, HeLa, 28.5 h; bulk GFP, mean of 2; read-out: % of control remaining. As for the experimental part:
MICs were calculated as described above.

Usually viability stands for a read-out of living cells in per cent, often relative to untreated cells.

As for `CN1CCN(c2ccc3ccn(S(=O)(=O)c4ccc([N+](=O)[O-])cc4)c3n2)CC1` [CBK070757C], in “in vitro”, the viability at 28.5 h, 1 µM turned out to be 89.6%; the viability at 28.5 h, 5 µM was determined as 87.7%; the viability at 28.5 h, 10 µM was 86%. Besides, in data set [1], the activity at 1 µM was 106%, the activity at 5 µM was found to be 64% and the activity at 10 µM was found to be 24.6%. For the same molecule, in data set [2], the activity at 1 µM is 140%, the activity at 5 µM came out at 89.2% and the activity at 10 µM worked out at 46.7%.
Regarding `N#Cc1c(Nc2cccc(C(F)(F)F)c2)sc(C(=O)c2ccc3c(c2)OCO3)c1N` [CBK074399], in “in vitro”, the viability at 28.5 h, 1 µM was 87.7%; the viability at 28.5 h, 5 µM was determined as 85.9%; the viability at 28.5 h, 10 µM turned out to be 81.1%. In data set [1], the activity at 1 µM came to 2.52%, the activity at 5 µM is 2.64% and the activity at 10 µM came out at 6.62%. Moreover, in data set [2], the activity at 1 µM came out at 10.1%, the activity at 5 µM turned out to be 11.2% and the activity at 10 µM amounted to 17.7%.
Turning to `Cc1ccc(OCC(O)CN2CCN(c3nc(-c4ccccc4)ns3)CC2)c([N+](=O)[O-])c1` (stereo not drawn) [CBK074696], in “in vitro”, the viability at 28.5 h, 1 µM was determined as 104%; the viability at 28.5 h, 5 µM was 99.5%; the viability at 28.5 h, 10 µM worked out at 102%. For the same molecule, in data set [1], the activity at 1 µM stood at 113%, the activity at 5 µM came to 55.9% and the activity at 10 µM was found to be 68.2%. For the same molecule, in data set [2], the activity at 1 µM is 147%, the activity at 5 µM was found to be 120% and the activity at 10 µM was determined as 133%.
Turning to `c1ccc(CNc2nnc(-c3ccccc3)s2)cc1` [CBK074928], in the data set “in vitro”, the viability at 28.5 h, 1 µM was determined as 95%; the viability at 28.5 h, 5 µM was determined as 91.9%; the viability at 28.5 h, 10 µM was found to be 104%. In data set [1], the activity at 1 µM came to 68.4%, the activity at 5 µM came to 34.4% and the activity at 10 µM stood at 26.9%. Besides, in data set [2], the activity at 1 µM was found to be 92.7%, the activity at 5 µM stood at 77.6% and the activity at 10 µM came to 65.1%.
Take `CC(C)Nc1nc2cc(Cl)c(Cl)cc2nc1Sc1cccc(O)c1` [CBK093732]: in “in vitro”, the viability at 28.5 h, 1 µM is 95.8%; the viability at 28.5 h, 5 µM worked out at 88%; the viability at 28.5 h, 10 µM was 100%. Besides, in data set [1], the activity at 1 µM was determined as 129%, the activity at 5 µM is 50.2% and the activity at 10 µM was determined as 35.1%. In addition, in data set [2], the activity at 1 µM is 124%, the activity at 5 µM worked out at 94.8% and the activity at 10 µM came to 55.6%.
Turning to `CC(C)(N)CNC(=O)c1cc(C(C)(C)C)nn1Cc1ccc(Cl)cc1Cl` [CBK107296], in the data set “in vitro”, the viability at 28.5 h, 1 µM is 91.1%; the viability at 28.5 h, 5 µM was 95.2%; the viability at 28.5 h, 10 µM turned out to be 93.8%. Besides, in data set [1], the activity at 1 µM was 87.7%, the activity at 5 µM is 54.2% and the activity at 10 µM was found to be 26.9%. In data set [2], the activity at 1 µM worked out at 115%, the activity at 5 µM was 76.6% and the activity at 10 µM worked out at 36%.
Regarding `COc1ccc2[nH]cc(CCNC(=O)c3ccc(Cl)c(Cl)c3)c2c1` [CBK115870], in the data set “in vitro”, the viability at 28.5 h, 1 µM is 93.3%; the viability at 28.5 h, 5 µM worked out at 88.8%; the viability at 28.5 h, 10 µM was found to be 92.1%. Also, in data set [1], the activity at 1 µM is 109%, the activity at 5 µM was 78.8% and the activity at 10 µM was found to be 40.9%. In addition, in data set [2], the activity at 1 µM was determined as 132%, the activity at 5 µM came out at 66.5% and the activity at 10 µM is 33.8%.
For the molecule `O=C(Nc1ccc2[nH]ccc2c1)c1ccccc1Nc1cccc(C(F)(F)F)c1` [CBK149583], in the data set “in vitro”, the viability at 28.5 h, 1 µM is 118%; the viability at 28.5 h, 5 µM is 114%; the viability at 28.5 h, 10 µM was found to be 112%. Further, in data set [1], the activity at 1 µM was found to be 93.2%, the activity at 5 µM was 59.8% and the activity at 10 µM amounted to 72.2%. In data set [2], the activity at 1 µM was 119%, the activity at 5 µM was found to be 90% and the activity at 10 µM was determined as 67.7%.
`O=C(NCC1CC1)c1ccc(N2CCN(C(=O)c3ccccc3C(F)(F)F)CC2)nn1` [CBK153220]: in “in vitro”, the viability at 28.5 h, 1 µM was found to be 104%; the viability at 28.5 h, 5 µM is 93%; the viability at 28.5 h, 10 µM worked out at 95.9%. Moreover, in data set [1], the activity at 1 µM turned out to be 146%, the activity at 5 µM came out at 79.1% and the activity at 10 µM is 94.4%. For the same molecule, in data set [2], the activity at 1 µM is 149%, the activity at 5 µM came to 123% and the activity at 10 µM is 138%.
Take `O=C(NCc1ccc([N+](=O)[O-])cc1)c1cccnc1NCc1ccc2c(c1)OCO2` [CBK153436]: in the data set “in vitro”, the viability at 28.5 h, 1 µM was 103%; the viability at 28.5 h, 5 µM came out at 109%; the viability at 28.5 h, 10 µM stood at 109%. Moreover, in data set [1], the activity at 1 µM was 65.8%, the activity at 5 µM was 65.9% and the activity at 10 µM was found to be 38.2%. Moreover, in data set [2], the activity at 1 µM worked out at 113%, the activity at 5 µM turned out to be 68.2% and the activity at 10 µM was found to be 25.1%.
For `O=C(Nc1ncc(-c2ccccc2)s1)c1cccc([N+](=O)[O-])c1` [CBK157055], in the data set “in vitro”, the viability at 28.5 h, 1 µM is 114%; the viability at 28.5 h, 5 µM stood at 102%; the viability at 28.5 h, 10 µM amounted to 114%. Also, in data set [1], the activity at 1 µM was 86.4%, the activity at 5 µM worked out at 88.1% and the activity at 10 µM came to 56.9%. In addition, in data set [2], the activity at 1 µM worked out at 110%, the activity at 5 µM came out at 86.9% and the activity at 10 µM worked out at 76.9%.
Take `O=C(NCCc1c[nH]c2ccc(Cl)cc12)c1ccc(Cl)cc1Cl` [CBK159750]: in the data set “in vitro”, the viability at 28.5 h, 1 µM came to 95.1%; the viability at 28.5 h, 5 µM amounted to 93.9%; the viability at 28.5 h, 10 µM amounted to 98.4%. For the same molecule, in data set [1], the activity at 1 µM amounted to 91.9%, the activity at 5 µM was determined as 68.5% and the activity at 10 µM was determined as 6.32%. In data set [2], the activity at 1 µM turned out to be 88%, the activity at 5 µM came out at 40.4% and the activity at 10 µM was determined as 8.46%.
Turning to `Cc1ccc(CNC(=O)OCc2cccnc2C)o1` [CBK200131], in “in vitro”, the viability at 28.5 h, 1 µM came out at 102%; the viability at 28.5 h, 5 µM turned out to be 104%; the viability at 28.5 h, 10 µM was determined as 101%. In data set [1], the activity at 1 µM worked out at 120%, the activity at 5 µM came to 61.9% and the activity at 10 µM is 91.2%. Besides, in data set [2], the activity at 1 µM came out at 120%, the activity at 5 µM turned out to be 111% and the activity at 10 µM turned out to be 119%.
`Cn1cncc1C(=O)NCc1ccccc1` [CBK200199]: in the data set “in vitro”, the viability at 28.5 h, 1 µM was 114%; the viability at 28.5 h, 5 µM was found to be 107%; the viability at 28.5 h, 10 µM stood at 104%. Further, in data set [1], the activity at 1 µM was found to be 111%, the activity at 5 µM amounted to 106% and the activity at 10 µM was 69.3%. Moreover, in data set [2], the activity at 1 µM was 95.8%, the activity at 5 µM worked out at 109% and the activity at 10 µM worked out at 110%.
Consider `CC(C)NCC(O)Cn1c2c(c3ccccc31)CCc1c-2cnn1-c1ccccc1` (stereo not drawn) [CBK261107], for which, in the data set “in vitro”, the viability at 28.5 h, 1 µM was found to be 87.2%; the viability at 28.5 h, 5 µM amounted to 89.4%; the viability at 28.5 h, 10 µM is 82.4%. Further, in data set [1], the activity at 1 µM was determined as 102%, the activity at 5 µM turned out to be 73.8% and the activity at 10 µM stood at 19.6%. Further, in data set [2], the activity at 1 µM is 101%, the activity at 5 µM was 105% and the activity at 10 µM came out at 19.8%.
`COc1cc(/C=N/c2cccc3c(/N=C/c4ccc(O)c(OC)c4)cccc23)ccc1O` [CBK261224]: in the data set “in vitro”, the viability at 28.5 h, 1 µM was 89.7%; the viability at 28.5 h, 5 µM is 86.7%; the viability at 28.5 h, 10 µM is 81.8%. Also, in data set [1], the activity at 1 µM amounted to 114%, the activity at 5 µM was 68% and the activity at 10 µM came out at 40.8%. In data set [2], the activity at 1 µM was 120%, the activity at 5 µM was 67.3% and the activity at 10 µM worked out at 44%.
In the case of `Cc1cc(C)nc(NS(=O)(=O)c2ccc(Nc3ccc4nonc4c3[N+](=O)[O-])cc2)n1` [CBK261444], in “in vitro”, the viability at 28.5 h, 1 µM turned out to be 92.5%; the viability at 28.5 h, 5 µM worked out at 86.4%; the viability at 28.5 h, 10 µM was determined as 79.7%. Besides, in data set [1], the activity at 1 µM was found to be 130%, the activity at 5 µM is 121% and the activity at 10 µM amounted to 67.5%. Further, in data set [2], the activity at 1 µM was found to be 132%, the activity at 5 µM was 92.2% and the activity at 10 µM was 60.3%.
As for `COc1ccc(C(=O)NNC(=O)/C=C/c2ccc(C(C)C)cc2)cc1` [CBK261697], in the data set “in vitro”, the viability at 28.5 h, 1 µM was determined as 95%; the viability at 28.5 h, 5 µM was determined as 95.5%; the viability at 28.5 h, 10 µM stood at 94.3%. In data set [1], the activity at 1 µM turned out to be 121%, the activity at 5 µM came to 97.3% and the activity at 10 µM is 48.1%. For the same molecule, in data set [2], the activity at 1 µM was found to be 111%, the activity at 5 µM amounted to 98% and the activity at 10 µM worked out at 43.2%.
For `c1ccc(Oc2cccc(OCCCN3CCCCC3)c2)cc1` [CBK261781], in the data set “in vitro”, the viability at 28.5 h, 1 µM worked out at 103%; the viability at 28.5 h, 5 µM was 97%; the viability at 28.5 h, 10 µM came out at 101%. Moreover, in data set [1], the activity at 1 µM worked out at 122%, the activity at 5 µM turned out to be 69.2% and the activity at 10 µM was found to be 23.4%. For the same molecule, in data set [2], the activity at 1 µM was determined as 131%, the activity at 5 µM amounted to 133% and the activity at 10 µM amounted to 74.4%.
